# Target: α-synuclein (Homo sapiens, UniProt P37840)
# Test: DOPAL-triggered α-synuclein aggregation in test tube, Western blot
# Assay type: biochemical
# Conditions: AS 2 μM, 37° C., up to 4 h, DOPAL 1.5-1,500 μM
# Description: Determination of DOPAL-triggered α-synuclein aggregation in vitro. Western blot of DOPAL-triggered AS aggregation in test tube experiments. DOPAL was dissolved in 1% benzyl alcohol, then diluted to a final concentration of 1.5-1,500 μM as described previously. AS (2 μM) was incubated at 37° C. in 20 μl of 100 mM tris-HCl buffer (pH 7.2) with or without DA, DOPAL, DOPAC, or homovanillic acid (HVA) for up to 4 h. The reaction was stopped by heating at 70° C. for 3 min in SDS buffer. The entire mixture was transferred to the appropriate gel (vide infra).
# SDS-PAGE and immunoblotting. Ten micrograms of protein (estimated by Bio Rad protein reagent) was resolved by electrophoresis on 4-12% bis-tris gels run with MES SDS buffer, and 3-8% tris-acetate gels using tris-acetate running buffer. For immunoblotting, the protein was transferred to PVDF blotting membranes with […] pore size, blocked with 5% milk protein in tris buffered saline (TBS) containing 0.1% Tween 20, and incubated for 1 h with a AS 202 monoclonal antibody (1:2,500 dilution). Blots were washed five times with 5% milk protein in TBS and probed with horseradish peroxidase-conjugated anti-mouse secondary antibody (1:2,500). Blots were washed five times with TBS containing. 0.5% Tween 20 before detection with Super Signal (Pierce).
# Western blot analysis was performed to analyze DOPAL-induced aggregation of α-synuclein (FIG. 1). […]
smiles,measurement,value
"O=CCc1ccc(O)c(O)c1 [DOPAL, 3,4-dihydroxyphenylacetaldehyde]",aggregation of α-synuclein oligomers in vitro,triggers dose-dependent aggregation

# From patent US20120005765A1, “ANIMAL MODEL FOR PARKINSON'S DISEASE” (Saint Louis University, priority 2010, published 2012)
